Patent publication US8648116B2, “Derivatives of N-(arylamino) sulfonamides including polymorphs as inhibitors of MEK as well as compositions, methods of use and methods for preparing the same” (Ardea Biosciences, Inc., priority 2005, dated 2014)
Where two headings read alike, the source gives them in different places. Marks after values point to notes of the source that are not given here.

Legend:
Colo205 tumor cells = experiment: ED50 in Colo205 xenografts (Example 94D); format: in vivo, nu/nu mice
Source text: Male nu/nu mice were implanted with Colo205 tumor cells. After 10 days animals were randomized by tumor size (range 126-256 mm^3) and treated with paclitaxel (IV, QODx5), vehicle or Compound A (PO, QDx14).

[1] = Concentration-time profiles after a single dose of capsules; set-up: species or system human cancer patients; details: human, in vivo, oral, capsules of example 95A, Day 1; for AUC(0-t): read-out: AUC0-12hr
Protocol: Human cancer patients were administered a single dose of the 1 mg or 10 mg capsule composition described above in example 95A. For a 2 mg dose, patients were given 2×1 mg capsules; for a 4 mg dose, patients were given 4×1 mg capsules; for a 6 mg dose, patients were given 6×1 mg capsules; for a 10 mg dose, patients were given 1×10 mg capsule; for a 20 mg dose, patients were given 2×10 mg capsules.
The concentration-time profiles were monitored and are shown in FIG. 4 and in the table below: […]

A375 melanoma tumors = experiment: Anti-tumor xenograft activity, TGI and TGD (Example 94); format: in vivo, nu/nu mice
Protocol: Human tumors were implanted in nu/nu mice. Compound A was administered orally for 14 days once tumors were approximately 100 mm^3 in size. Tumor growth inhibition (TGI) was determined after 14 days of treatment as the reduction in the size of tumors in treated groups versus vehicle controls. The time to endpoint (TTE) was calculated as the time for the tumor to reach the specified endpoint volume or the last day of the study, whichever came first. Treatment outcome was determined from percent tumor growth delay (% TGD), defined as the percent increase in median TTE of treated versus vehicle-treated control mice. Animals were also monitored for regression responses. Levels of pERK in tumors and brain were determined by Western blots and correlated with plasma levels of Compound A for the pharmacodynamic/pharmacokinetic study. A number of tumor models were evaluated with different doses and dosing regimens. […] The effect of different dosing regimens was evaluated in A375 xenografts.
Female nu/nu mice were implanted with A375 Melanoma, Colo205 Colon Tumor, A431 Epidermoid Tumor or HT-29 Colon Tumor cells, which were allowed to grow to 100-200 mm^3. Compound A or vehicle was administered orally (25 mg/kg, 50 mg/kg or 100 mg/kg), once a day, for 14 days.
Tumor Growth Inhibition for the groups treated with 25 mg/kg Compound A were calculated for the indicated tumor xenografts. Tumor Growth Inhibition was measured at the end of once daily dosing for 14 days and calculated according to:
Female nu/nu mice were implanted with A375 tumor cells, which were allowed to grow to 100-200 mm^3. Compound. […] Tumor Growth Inhibition was measured at the end of once daily dosing for 14 days and calculated according to: […]

[2] = test system: COLO 205 human colon carcinoma xenografts; experiment: Activity against subcutaneous COLO 205 xenografts (Example 118)
Protocol: Dosing solutions of Compound A were prepared fresh daily by dissolving the required amount of compound in 100% Cremophor EL, and then diluting ten-fold with normal saline. Final dosing solution concentrations were 2.5, 5, 10, or 20 mg/mL, in order to provide respective doses of 25, 50, 100 or 200 mg/kg in a dosing volume of 10 mL/kg. Paclitaxel (Natural Pharmaceuticals, Inc.) was prepared fresh on each day of dosing in a vehicle consisting of 5% ethanol and 5% Cremophor EL in 90% D5W (5% EC vehicle).
Group 1 received the formulation vehicle (10% Cremophor EL in saline), and served as the tumor growth control group. Group 2 received the reference drug paclitaxel administered on its optimal schedule in nude mice (30 mg/kg i.v. qod×5). […] All doses were scaled to the weight of the animal (0.2 mL per 20 grams body weight).
Tumors were measured twice each week using calipers. […] Therefore endpoint tumor size of 800 mm^3 was used for analysis of tumor growth delay (TGD).
[formula] where b is the intercept and m is the slope of the line obtained by linear regression of a log-transformed tumor growth data set.

MDA-MB231 cells = experiment: Anchorage-independent growth inhibition (MTS, 7 days); format: cell-based, human
[3] = Group 3, 50 mg/kg po qd × 14 per the 39th table (25 mg/kg p.o. qd×14), n=9
[4] = Group 4, 25 mg/kg po bid × 14 first day 1 dose per the 39th table (50 mg/kg p.o. qd×14), n=9
[5] = Group 5, 25 mg/kg po qd × 14 per the 39th table (100 mg/kg p.o. qd×14), n=9
[6] = Group 6, 12.5 mg/kg po bid × 14 first day 1 dose per the 39th table (200 mg/kg p.o., discontinued after six days), n=9

SMILES: COc1cc(F)c(F)c(Nc2ccc(I)cc2F)c1NS(=O)(=O)C1(C[C@H](O)CO)CC1 [Compound A]
- % TGI (Colo205 tumor cells; Compound A 2.5 mg/kg PO QDx14): 47* %
- Day 15 Tumor Volume (Colo205 tumor cells; Compound A 2.5 mg/kg PO QDx14): 1187 ± 127 mm^3
- % TGI (Colo205 tumor cells; Compound A 5 mg/kg PO QDx14): 48* %
- Day 15 Tumor Volume (Colo205 tumor cells; Compound A 5 mg/kg PO QDx14): 1175 ± 104 mm^3
- % TGI (Colo205 tumor cells; Compound A 10 mg/kg PO QDx14): 55* %
- Day 15 Tumor Volume (Colo205 tumor cells; Compound A 10 mg/kg PO QDx14): 1045 ± 160 mm^3
- % TGI (Colo205 tumor cells; Compound A 25 mg/kg PO QDx14): 70* %
- Day 15 Tumor Volume (Colo205 tumor cells; Compound A 25 mg/kg PO QDx14): 762 ± 81 mm^3
- Cmax ([1]; 2 mg, 2 mg dose): 0.111 ng/mL
- Tmax ([1]; 2 mg, 2 mg dose): 2 h
- Cmax ([1]; 4 mg, 4 mg dose): 0.292 ng/mL
- AUC(0-t) ([1]; 2 mg dose): 0.7 ng·h/mL
- AUC(0-t) ([1]; 4 mg dose): 2.26 ng·h/mL
- % TGI (A375 melanoma tumors; A375 Melanoma xenograft, 25 mg/kg QD oral, 14 days, range from 2 separate studies): 52-72** %
- % TGD, significance (A375 melanoma tumors; A375 melanoma tumors, 25 or 50 mg/kg once daily (QD)): statistically significant
- % TGI (A375 melanoma tumors; A375 xenografts, 12.5 mg/kg BID): 79.5%
- % TGI (A375 melanoma tumors; A375 xenografts, 25 mg/kg BID): 110.1%
- % TGD (A375 melanoma tumors; A375 xenografts, 25 mg/kg QD): 143%
- % TGI (A375 melanoma tumors; A375 xenografts, 25 mg/kg QD): 51.7%
- % TGD (A375 melanoma tumors; A375 xenografts, 50 mg/kg QD): 233%
- % TGI (A375 melanoma tumors; A375 xenografts, 50 mg/kg QD): 69.9%
- % TGD (A375 melanoma tumors; A375 xenografts, 100 mg/kg orally once every two days): 91%
- TGD ([2]; 25 mg/kg p.o. qd×14): 3%
- TGD ([2]; 50 mg/kg p.o. qd×14): 46%
- TGD ([2]; 100 mg/kg p.o. qd×14): maximum TGD possible
- relation to the MTD ([2]; 200 mg/kg p.o. once daily): above the MTD
- TR deaths ([2]; 200 mg/kg p.o., dosing stopped after Day 6): 3/9
- Median TTE ([2]; Group 3, 25 mg/kg p.o. qd×14): 47.9 days
- % TGD [2, 3]: 17%
- MTV (n) Day 74 [2, 3]: 0 (3)
- Median TTE [2, 3]: 47.9 days
- No of CR [2, 3]: 0
- No of NTR (non-treatment-related deaths) [2, 3]: 2
- No of PR [2, 3]: 1
- No of TFS [2, 3]: 0
- No of TR (treatment-related deaths) [2, 3]: 2
- SS (statistical significance, logrank vs Group 1) [2, 3]: ns
- T − C [2, 3]: 6.9 days
- % TGD [2, 4]: 44%
- MTV (n) Day 74 [2, 4]: 195 (1)
- Median TTE [2, 4]: 59.1 days
- No of CR [2, 4]: 0
- No of NTR (non-treatment-related deaths) [2, 4]: 0
- No of PR [2, 4]: 4
- No of TFS [2, 4]: 0
- No of TR (treatment-related deaths) [2, 4]: 0
- SS (statistical significance, logrank vs Group 1) [2, 4]: ns
- T − C [2, 4]: 18.1 days
- Median TTE ([2]; Group 4, 50 mg/kg p.o. qd×14): 59.1 days
- % TGD [2, 5]: 80%
- MTV (n) Day 74 [2, 5]: 320 (5)
- Median TTE [2, 5]: 74.0 days
- No of CR [2, 5]: 0
- No of NTR (non-treatment-related deaths) [2, 5]: 0
- No of PR [2, 5]: 4
- No of TFS [2, 5]: 0
- No of TR (treatment-related deaths) [2, 5]: 1
- SS (statistical significance, logrank vs Group 1) [2, 5]: ns
- T − C [2, 5]: 33.0 days
- Median TTE ([2]; Group 5, 100 mg/kg p.o. qd×14): 74.0 days
- % TGD [2, 6]: 41%
- MTV (n) Day 74 [2, 6]: 0 (3)
- Median TTE [2, 6]: 57.8 days
- No of CR [2, 6]: 3
- No of NTR (non-treatment-related deaths) [2, 6]: 2
- No of PR [2, 6]: 1
- No of TFS [2, 6]: 0
- No of TR (treatment-related deaths) [2, 6]: 2
- T − C [2, 6]: 16.8 days

SMILES: COc1cc(F)c(F)c(Nc2ccc(I)cc2F)c1NS(=O)(=O)C1(C[C@H](O)CO)CC1
- GI50 (MDA-MB231 cells; MDA-MB231, anchorage independent): 81 nM
- anchorage independent growth (FIG. 12C) (MDA-MB231 cells; MDA-MB231 cells): inhibition of MDA-M8231 cells
